Measured values: publication PMC3673472, “Structural and functional insight into the universal stress protein family” (Evolutionary Applications, 2013)

Assays:
NE1028 = molecular target: T1, NE1028 (Nitrosomonas europaea, UniProt Q82VN8); test: X-ray crystal structure of the complex ([…] Å); settings: cocrystallised with 10 mM AMP, pH 7.0, then soaked with 10 mM AMP for 24 h; ATP-binding site
T1 construct: full-length, N-terminal His6-TEV tag cleaved; wild type (not SeMet) in the AMP complex; homodimer
T1 sequence (Q82VN8 entry or part of it): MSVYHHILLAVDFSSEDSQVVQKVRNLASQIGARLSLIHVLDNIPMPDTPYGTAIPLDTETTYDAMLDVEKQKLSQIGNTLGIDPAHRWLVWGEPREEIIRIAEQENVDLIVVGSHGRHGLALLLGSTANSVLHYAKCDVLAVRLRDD

AF0826 = molecular target: T2, AF0826 (Archaeoglobus fulgidus, UniProt O29432); test: X-ray crystal structure of the complex ([…] Å); settings: SeMet crystals (pH 5.5) soaked with a cocktail of adenine, adenosine, AMP, ADP, ATP, dAMP, cAMP, ADP-ribose; ligand identified from structure; ATP-binding site
T2 construct: gene AF_0826; N-terminal His6-TEV tag kept; selenomethionine-substituted; homodimer; strain printed only for AF1760 of the same species
T2 sequence (O29432 entry or part of it): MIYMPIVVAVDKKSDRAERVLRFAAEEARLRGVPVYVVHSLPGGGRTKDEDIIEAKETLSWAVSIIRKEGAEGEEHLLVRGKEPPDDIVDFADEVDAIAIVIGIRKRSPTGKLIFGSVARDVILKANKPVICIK

Nc1ncnc2c1ncn2[C@@H]1O[C@H](COP(=O)(O)O)[C@@H](O)[C@H]1O [AMP]
X-ray crystal structure of the complex (2.00 Å) (NE1028): Our structure of NE1028–AMP confirms that the protein can bind at least one molecule

Nc1ncnc2c1ncn2[C@H]1C[C@H](O)[C@@H](COP(=O)(O)O)O1 [dAMP]
X-ray crystal structure of the complex (2.10 Å) (AF0826): we obtained the structure of AF0826 with dAMP bound in the vicinity
